Test results reported in patent US20240166626A1, “Compounds and Methods for Preventing, Treating, or Ameliorating Airway Disease” (THOMAS JEFFERSON UNIVERSITY, priority 2021, published 2024).

Tested on: mouse airway tissue
Test: Measurement of airway contractility in ex vivo mouse lung tissue slices
Method: FIGS. 4A-4F: DFPQ inhibits internalization of the β2AR and protects from agonist induced desensitization in cell and tissue models. FIG. 4A: Effect of DFPQ on agonist-promoted internalization of the β2AR. HEK 293 cells stably expressing FLAG-β2AR were pre-incubated with 0.1% DMSO or 10 μM DFPQ for 30 min and then stimulated with the indicated concentrations of ISO for up to 60 min. Cells were fixed and receptor surface expression was measured by ELISA. […] Cells were lysed and cAMP production was measured by ELISA. […] FIG. 4C: Mouse airway tissue were contracted with 1 μM methacholine for 5 min and then incubated overnight with 1 μM ISO±1 μM DFPQ. […] Airway contractility was measured by luminal area of bronchioles by microscopy at various times. […]
Cell culture GLOSENSOR™ cells (Promega) were maintained in Dulbecco's modified Eagle's medium (DMEM) containing 10% fetal bovine serum (FBS) and 200 μg/ml Hygromycin B. […]® ADRB2 cells (DiscoveRx) were maintained with the AssayComplete™ Cell Culture kit (DiscoveRx catalog #92-3107G). […] Cells were read every three minutes for 18 minutes on a PolarStar Optima plate reader (BMG) to establish peak signal. ISO was added to each well to a final concentration of 1 μM, and luminescence was determined in kinetic mode at room temperature (23-25° C.). […] Luminescence was determined at room temperature (23-25° C.) on a PolarStar Optima plate reader (BMG). […]

## Fc1ccc(Nc2nc(NC3CCCCC3)c3ccccc3n2)cc1F [DFPQ, N^4-cyclohexyl-N^2-(3,4-difluorophenyl)quinazoline-2,4-diamine]
Overnight 1 μM ISO + 1 μM DFPQ, relative to control, FIG. 4C
  ISO mediated reversal of airway contraction on day 2: largely preserved
Up to 25 minutes post ISO challenge on day 2, FIG. 4D
  protection from desensitization: significant protection from desensitization
